Assay results published in PubChem BioAssay AID1845205 (Molecular Pharmacology Branch, DTP, NCI, 2023).

Tested on: MPNST multicellular tumor spheroids, viability % test/control
Assay: Anticancer human tumor MPNST cell line growth inhibition;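 also: spheroids exposed to agents for seven days after three days of growth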;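 as to viability, T/C: luminescence signal used as surrogate for viable cell amount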
Conditions: for viability, T/C: stronger effect = lower value
Method in brief: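 Single agents and combinations were tested on spheroids built from tumor cells plus HUVEC and hMSC, at half-log dilutions starting at or near clinical Cmax, else 10 microM; final DMSO 0.25% (v/v).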

[1] = curve of first compound, second compound 0.003 µM
[2] = second compound 0.003 µM, first compound 0.0316 µM
[3] = second compound 0.003 µM, first compound 0.1 µM
[4] = second compound 0.003 µM, first compound 0.316 µM
[5] = second compound 0.003 µM, first compound 1 µM
[6] = second compound 0.003 µM, first compound 3.16 µM
[7] = second compound 0.003 µM, first compound 10 µM
[8] = curve of first compound, second compound 0.00949 µM
[9] = curve of first compound, second compound 0.03 µM
[10] = curve of first compound, second compound 0.0949 µM
[11] = curve of first compound, second compound 0.3 µM
[12] = second compound 0.00949 µM, first compound 0.0316 µM
[13] = second compound 0.00949 µM, first compound 0.1 µM
[14] = second compound 0.00949 µM, first compound 0.316 µM
[15] = second compound 0.00949 µM, first compound 1 µM
[16] = second compound 0.00949 µM, first compound 3.16 µM
[17] = second compound 0.00949 µM, first compound 10 µM
[18] = second compound 0.03 µM, first compound 0.0316 µM
[19] = second compound 0.03 µM, first compound 0.1 µM
[20] = second compound 0.03 µM, first compound 0.316 µM
[21] = second compound 0.03 µM, first compound 1 µM
[22] = second compound 0.03 µM, first compound 3.16 µM
[23] = second compound 0.03 µM, first compound 10 µM
[24] = second compound 0.0949 µM, first compound 0.0316 µM
[25] = second compound 0.0949 µM, first compound 0.1 µM
[26] = second compound 0.0949 µM, first compound 0.316 µM
[27] = second compound 0.0949 µM, first compound 1 µM
[28] = second compound 0.0949 µM, first compound 3.16 µM
[29] = second compound 0.0949 µM, first compound 10 µM
[30] = second compound 0.3 µM, first compound 0.0316 µM
[31] = second compound 0.3 µM, first compound 0.1 µM
[32] = second compound 0.3 µM, first compound 0.316 µM
[33] = second compound 0.3 µM, first compound 1 µM
[34] = second compound 0.3 µM, first compound 3.16 µM
[35] = second compound 0.3 µM, first compound 10 µM

## [2H]c1nc(C)nc([2H])c1-c1cc(NC[C@@H](C)c2cccc3c(C(=O)NC)ccnc23)ncn1 + COc1cc2c(cc1O)CCNC21CSC2c3c(OC(C)=O)c(C)c4c(c3C(COC1=O)N1C(O)C3Cc5cc(C)c(OC)c(O)c5C(C21)N3C)OCO4
Curve of first compound, second compound 30 pM
  IC50: > 10000 nM
Curve of first compound, second compound 94.9 pM
  IC50: > 10000 nM
Curve of first compound, second compound 0.0003 µM
  IC50: > 10000 nM
Curve of first compound, second compound 0.000949 µM
  IC50: < 31.6 nM
[1]
  IC50: < 31.6 nM
Second compound 30 pM, first compound 0.0316 µM
  viability, T/C: 83.5%
Second compound 30 pM, first compound 0.1 µM
  viability, T/C: 71.4%
Second compound 30 pM, first compound 0.316 µM
  viability, T/C: 73.3%
Second compound 30 pM, first compound 1 µM
  viability, T/C: 97.6%
Second compound 30 pM, first compound 3.16 µM
  viability, T/C: 72.7%
Second compound 30 pM, first compound 10 µM
  viability, T/C: 88.1%
Second compound 94.9 pM, first compound 0.0316 µM
  viability, T/C: 94.4%
Second compound 94.9 pM, first compound 0.1 µM
  viability, T/C: 83%
Second compound 94.9 pM, first compound 0.316 µM
  viability, T/C: 81.6%
Second compound 94.9 pM, first compound 1 µM
  viability, T/C: 103%
Second compound 94.9 pM, first compound 3.16 µM
  viability, T/C: 99.9%
Second compound 94.9 pM, first compound 10 µM
  viability, T/C: 78.3%
Second compound 0.0003 µM, first compound 0.0316 µM
  viability, T/C: 78%
Second compound 0.0003 µM, first compound 0.1 µM
  viability, T/C: 75.8%
Second compound 0.0003 µM, first compound 0.316 µM
  viability, T/C: 72.5%
Second compound 0.0003 µM, first compound 1 µM
  viability, T/C: 95.7%
Second compound 0.0003 µM, first compound 3.16 µM
  viability, T/C: 75.8%
Second compound 0.0003 µM, first compound 10 µM
  viability, T/C: 87%
Second compound 0.000949 µM, first compound 0.0316 µM
  viability, T/C: 48.4%
Second compound 0.000949 µM, first compound 0.1 µM
  viability, T/C: 40.6%
Second compound 0.000949 µM, first compound 0.316 µM
  viability, T/C: 42.7%
Second compound 0.000949 µM, first compound 1 µM
  viability, T/C: 43.1%
Second compound 0.000949 µM, first compound 3.16 µM
  viability, T/C: 42.3%
Second compound 0.000949 µM, first compound 10 µM
  viability, T/C: 42.9%
[2]
  viability, T/C: 9.53%
[3]
  viability, T/C: 12.7%
[4]
  viability, T/C: 8.26%
[5]
  viability, T/C: 12.5%
[6]
  viability, T/C: 9.06%
[7]
  viability, T/C: 8.35%

## COc1cc(C)[nH]c(=O)c1CN1CCc2c(Cl)cc(C(OC)C3COC3)c(Cl)c2C1=O (stereo not drawn) + CC[C@@]1(O)C(=O)OCc2c1cc1n(c2=O)Cc2cc3c(CN(C)C)c(O)ccc3nc2-1
[1]
  IC50: > 10000 nM
[8]
  IC50: > 10000 nM
[9]
  IC50: < 31.6 nM
[10]
  IC50: < 31.6 nM
[11]
  IC50: < 31.6 nM
[2]
  viability, T/C: 92.6%
[3]
  viability, T/C: 95.7%
[4]
  viability, T/C: 91.3%
[5]
  viability, T/C: 103%
[6]
  viability, T/C: 93.6%
[7]
  viability, T/C: 95.5%
[12]
  viability, T/C: 96.6%
[13]
  viability, T/C: 88.5%
[14]
  viability, T/C: 96.4%
[15]
  viability, T/C: 78%
[16]
  viability, T/C: 77.9%
[17]
  viability, T/C: 86.3%
[18]
  viability, T/C: 46.4%
[19]
  viability, T/C: 49.5%
[20]
  viability, T/C: 51.5%
[21]
  viability, T/C: 49.2%
[22]
  viability, T/C: 54.2%
[23]
  viability, T/C: 51.6%
[24]
  viability, T/C: 48.5%
[25]
  viability, T/C: 41.7%
[26]
  viability, T/C: 43.7%
[27]
  viability, T/C: 47.7%
[28]
  viability, T/C: 45.7%
[29]
  viability, T/C: 46.7%
[30]
  viability, T/C: 37%
[31]
  viability, T/C: 39.2%
[32]
  viability, T/C: 39.2%
[33]
  viability, T/C: 37.3%
[34]
  viability, T/C: 37.7%
[35]
  viability, T/C: 39.5%

## CC(C)n1c(=O)n(C)c2cnc3cc(F)c(-c4ccc(OCCCN5CCCCC5)nc4)cc3c21 + CC[C@@]1(O)C(=O)OCc2c1cc1n(c2=O)Cc2cc3c(CN(C)C)c(O)ccc3nc2-1
[1]
  IC50: 6260 nM
[8]
  IC50: < 31.6 nM
[9]
  IC50: < 31.6 nM
[10]
  IC50: < 31.6 nM
[11]
  IC50: < 31.6 nM
[2]
  viability, T/C: 65.9%
[3]
  viability, T/C: 52%
[4]
  viability, T/C: 79.9%
[5]
  viability, T/C: 97.3%
[6]
  viability, T/C: 59.6%
[7]
  viability, T/C: 38.8%
[12]
  viability, T/C: 46.8%
[13]
  viability, T/C: 41.3%
[14]
  viability, T/C: 50.5%
[15]
  viability, T/C: 41.3%
[16]
  viability, T/C: 50.3%
[17]
  viability, T/C: 34.6%
[18]
  viability, T/C: 35.4%
[19]
  viability, T/C: 33.4%
[20]
  viability, T/C: 38.9%
[21]
  viability, T/C: 44.5%
[22]
  viability, T/C: 44.1%
[23]
  viability, T/C: 31.8%
[24]
  viability, T/C: 34.6%
[25]
  viability, T/C: 35.2%
[26]
  viability, T/C: 35.5%
[27]
  viability, T/C: 39.8%
[28]
  viability, T/C: 37.8%
[29]
  viability, T/C: 32.6%
[30]
  viability, T/C: 30.2%
[31]
  viability, T/C: 29%
[32]
  viability, T/C: 31.4%
[33]
  viability, T/C: 34.9%
[34]
  viability, T/C: 36.5%
[35]
  viability, T/C: 29.1%

## COc1ccc([C@@H](O)c2cc(-c3ncnc4cc(N5CCOCC5)ccc34)c(F)cc2Cl)nn1 + CC[C@@]1(O)C(=O)OCc2c1cc1n(c2=O)Cc2cc3c(CN(C)C)c(O)ccc3nc2-1
[1]
  IC50: 1170 nM
[8]
  IC50: 641 nM
[9]
  IC50: < 31.6 nM
[10]
  IC50: < 31.6 nM
[11]
  IC50: < 31.6 nM
[2]
  viability, T/C: 96.3%
[3]
  viability, T/C: 77.6%
[4]
  viability, T/C: 69.2%
[5]
  viability, T/C: 55.6%
[6]
  viability, T/C: 33.5%
[7]
  viability, T/C: 14.6%
[12]
  viability, T/C: 78.4%
[13]
  viability, T/C: 81.6%
[14]
  viability, T/C: 57.7%
[15]
  viability, T/C: 41%
[16]
  viability, T/C: 33%
[17]
  viability, T/C: 17.3%
[18]
  viability, T/C: 42.7%
[19]
  viability, T/C: 42.9%
[20]
  viability, T/C: 42.6%
[21]
  viability, T/C: 36.1%
[22]
  viability, T/C: 21%
[23]
  viability, T/C: 16.4%
[24]
  viability, T/C: 44.7%
[25]
  viability, T/C: 39.2%
[26]
  viability, T/C: 37.6%
[27]
  viability, T/C: 34.7%
[28]
  viability, T/C: 22.8%
[29]
  viability, T/C: 15.7%
[30]
  viability, T/C: 36.1%
[31]
  viability, T/C: 39.7%
[32]
  viability, T/C: 32.6%
[33]
  viability, T/C: 27.6%
[34]
  viability, T/C: 18%
[35]
  viability, T/C: 10.3%

## CC[C@@]1(O)C(=O)OCc2c1cc1n(c2=O)Cc2cc3c(CN(C)C)c(O)ccc3nc2-1
Compound 0.03 µM
  viability, T/C: 53% [middle of 10 runs]
Compound 0.3 µM
  viability, T/C: 41.1% [middle of 10 runs]
Compound alone, run of 12/16/2019
  IC50: 28.5 nM [middle of 5 runs]
